Emax and EC50 data for 48 compounds are collected here from patent publication US8999976B2, “Modulators of cystic fibrosis transmembrane conductance regulator” (Vertex Pharmaceuticals Incorporated, priority 2008, dated 2015).

This assay has as its target T1, ΔF508-CFTR (Homo sapiens, UniProt P13569, DEL508-508).
T1 construct: expressed in transfected cells
Kind of assay: Membrane potential optical assay for potentiators of ΔF508-CFTR (FLIPR III, voltage sensing dyes). Format: cell-based. As to conditions: for Emax: NIH3T3, 100% efficacy is the maximum response obtained with 4-methyl-2-(5-phenyl-1H-pyrazol-3-yl)phenol, ΔF508 CFTR NIH 3T3 cells; for EC50: temperature-corrected ΔF508 CFTR NIH 3T3 cells, forskolin activation. The text has this:
The assay utilizes fluorescent voltage sensing dyes to measure changes in membrane potential using a fluorescent plate reader (e.g., FLIPR III, Molecular Devices, Inc.) as a readout for increase in functional ΔF508-CFTR in NIH 3T3 cells.
To identify potentiators of ΔF508-CFTR, a double-addition HTS assay format was developed. This HTS assay utilizes fluorescent voltage sensing dyes to measure changes in membrane potential on the FLIPR III as a measurement for increase in gating (conductance) of ΔF508 CFTR in temperature-corrected ΔF508 CFTR NIH 3T3 cells.
Solutions • Bath Solution #1: (in mM) NaCl 160, KCl 4.5, CaCl2 2, MgCl2 1, HEPES 10, pH 7.4 with NaOH. • Chloride-Free Bath Solution: Chloride Salts in Bath Solution #1 are Substituted with Gluconate Salts.
NIH3T3 mouse fibroblasts stably expressing ΔF508-CFTR are used for optical measurements of membrane potential. The cells are maintained at 37° C. in 5% CO2 and 90% humidity in Dulbecco's modified Eagle's medium supplemented with 2 mM glutamine, 10% fetal bovine serum, 1×NEAA, β-ME, 1×pen/strep, and 25 mM HEPES in 175 cm^2 culture flasks. For all optical assays, the cells were seeded at ˜20,000/well in 384-well matrigel-coated plates and cultured for 2 hrs at 37° C. before culturing at 27° C. for 24 hrs. for the potentiator assay. For the correction assays, the cells are cultured at 27° C. or 37° C. with and without compounds for 16-24 hours. Electrophysiological Assays for assaying ΔF508-CFTR modulation properties of compounds.

The structures appear in SMILES notation. Bounds are passed on as bounds.

T1 sequence (P13569 with tags, fused parts or gaps DEL508-508): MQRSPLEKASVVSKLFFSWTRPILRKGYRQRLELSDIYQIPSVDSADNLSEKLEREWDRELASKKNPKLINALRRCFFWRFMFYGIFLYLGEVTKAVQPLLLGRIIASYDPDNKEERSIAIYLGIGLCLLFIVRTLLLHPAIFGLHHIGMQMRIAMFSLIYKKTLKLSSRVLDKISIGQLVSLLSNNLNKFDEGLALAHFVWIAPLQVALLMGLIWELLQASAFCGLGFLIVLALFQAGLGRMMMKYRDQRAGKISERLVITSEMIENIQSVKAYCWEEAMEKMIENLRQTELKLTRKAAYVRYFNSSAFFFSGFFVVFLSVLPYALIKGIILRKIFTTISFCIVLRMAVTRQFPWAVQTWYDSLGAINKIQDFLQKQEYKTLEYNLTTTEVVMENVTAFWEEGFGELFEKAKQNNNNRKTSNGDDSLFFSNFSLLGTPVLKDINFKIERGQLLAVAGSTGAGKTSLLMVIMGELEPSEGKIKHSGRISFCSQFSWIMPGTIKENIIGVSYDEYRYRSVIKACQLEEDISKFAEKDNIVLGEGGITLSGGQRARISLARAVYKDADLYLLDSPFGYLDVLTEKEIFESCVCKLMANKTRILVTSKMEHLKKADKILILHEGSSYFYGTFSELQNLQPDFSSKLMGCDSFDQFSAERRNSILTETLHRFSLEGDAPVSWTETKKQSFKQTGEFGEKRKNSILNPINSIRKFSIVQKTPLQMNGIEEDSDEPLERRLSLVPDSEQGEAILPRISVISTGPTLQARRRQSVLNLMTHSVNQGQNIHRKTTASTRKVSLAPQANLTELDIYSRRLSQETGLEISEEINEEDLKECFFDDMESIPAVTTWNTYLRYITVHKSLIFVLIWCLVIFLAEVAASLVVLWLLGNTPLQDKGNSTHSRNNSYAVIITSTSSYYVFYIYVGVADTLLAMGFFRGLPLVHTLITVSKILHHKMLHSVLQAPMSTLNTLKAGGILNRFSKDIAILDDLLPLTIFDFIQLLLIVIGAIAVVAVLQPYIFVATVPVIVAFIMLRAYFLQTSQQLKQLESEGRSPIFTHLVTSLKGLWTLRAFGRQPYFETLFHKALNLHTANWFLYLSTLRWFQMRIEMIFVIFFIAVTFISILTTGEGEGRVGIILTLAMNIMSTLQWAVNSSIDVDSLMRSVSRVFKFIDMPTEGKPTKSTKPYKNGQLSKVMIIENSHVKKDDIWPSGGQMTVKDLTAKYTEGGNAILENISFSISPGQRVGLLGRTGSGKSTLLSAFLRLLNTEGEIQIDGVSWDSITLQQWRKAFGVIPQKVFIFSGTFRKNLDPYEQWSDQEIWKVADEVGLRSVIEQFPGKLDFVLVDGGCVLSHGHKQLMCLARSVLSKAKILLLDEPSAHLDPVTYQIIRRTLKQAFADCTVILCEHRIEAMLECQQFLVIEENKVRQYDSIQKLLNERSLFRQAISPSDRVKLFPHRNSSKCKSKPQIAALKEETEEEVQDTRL

For the compound `CC(C)(C)c1ccc(NC(=O)C2CNc3cc(F)c(F)cc3O2)cc1O` (stereo not drawn) [Compound 49], the Emax was 25 to 100% and the concentration giving a half-maximal response (EC50) was below 5 µM.

`N#Cc1cc(C2CCCC2)c(O)cc1NC(=O)[C@@H]1CNc2ccc(F)cc2O1` [Compound 50]: the Emax was in the range of 25 to 100% and the EC50 is below 5 µM.

On to `N#Cc1ccc2c(c1)NCC(C(=O)Nc1cc(O)c(C3CCCC3)cc1CN1CCNCC1)O2` (stereo not drawn) [Compound 51, 6-cyano-N-(4-cyclopentyl-5-hydroxy-2-(piperazin-1-ylmethyl)phenyl)-3,4-dihydro-2H-benzo[b][1,4]oxazine-2-carboxamide], for which the Emax was in the range of 25 to 100% and the EC50 lay in the range of 5 to 20 µM.

As for `CN1CCN(Cc2cc(C3CCCC3)c(O)cc2NC(=O)C2CNc3ccccc3O2)CC1` (stereo not drawn) [Compound 52, N-(4-cyclopentyl-5-hydroxy-2-((4-methylpiperazin-1-yl)methyl)phenyl)-3,4-dihydro-2H-benzo[b][1,4]oxazine-2-carboxamide], the Emax lay in the range of 25 to 100% and the concentration giving a half-maximal response (EC50) is below 5 µM.

As for `CC(C)CC#Cc1cc(C2CCCC2)c(O)cc1NC(=O)C1CNc2cc(OC(F)(F)F)ccc2O1` (stereo not drawn) [Compound 53], the Emax was in the range of 25 to 100% and the concentration giving a half-maximal response (EC50) was below 5 µM.

Consider `O=C(Nc1cc(O)c(C2CCCC2)cc1C(F)(F)F)[C@@H]1CNc2cc(OC(F)(F)F)ccc2O1` [Compound 54], for which the Emax lay within 25 to 100% and the EC50 is below 5 µM.

In the case of `Cc1cc(F)c(NC(=O)C2CNc3ccccc3O2)cc1O` (stereo not drawn) [Compound 55], the maximal response (Emax) is 25 to 100% and the EC50 was below 5 µM.

Regarding `Cc1cc(N2C3CCC2CC3)ncc1NC(=O)C1CNc2ccc(F)cc2O1` (stereo not drawn) [Compound 56], the Emax was 25 to 100% and the EC50 lay within 5 to 20 µM.

Regarding `O=C(Nc1cc(O)cc(C(F)(F)F)c1)C1CNc2ccccc2O1` (stereo not drawn) [Compound 57], the maximal effect (Emax) was in the range of 25 to 100% and the half-maximal effective concentration (EC50) was below 5 µM.

Take `CN(C)CC#Cc1cc(C2CCCC2)c(O)cc1NC(=O)[C@H]1CNc2cc(OC(F)(F)F)ccc2O1` [Compound 58]: the maximal response (Emax) was above 100% and the EC50 was below 5 µM.

As for `CC(C)(C)c1cc(C2CCCC2)c(O)cc1NC(=O)[C@@H]1CNc2cc(C#N)ccc2O1` [Compound 59], the Emax is 25 to 100% and the EC50 was below 5 µM.

Regarding `CC(C)c1ccc(NC(=O)C2CNc3cc(Cl)ccc3O2)c(C#CCN(C)C)c1` (stereo not drawn) [Compound 60], the maximal effect (Emax) was in the range of 25 to 100% and the half-maximal effective concentration (EC50) was below 5 µM.

As to `O=C(Nc1cc(O)c(C2CCCC2)cc1F)C1CNc2ccc(F)cc2O1` (stereo not drawn) [Compound 61], the maximal response (Emax) is 25 to 100% and the EC50 was below 5 µM.

Turning to `Cc1ccc(NC(=O)C2CNc3cc(OC(F)(F)F)ccc3O2)c(C#CCN2CCN(C)CC2)c1` (stereo not drawn) [Compound 62], the maximum response (Emax) fell in the range of 25 to 100% and the EC50 was below 5 µM.

With `Cc1ccc(NC(=O)C2CNc3cc(OC(F)(F)F)ccc3O2)c(C#CCN2CCNC(=O)C2)c1` (stereo not drawn) [Compound 63], the Emax was in the range of 25 to 100% and the concentration giving a half-maximal response (EC50) is below 5 µM.

For `Cc1ccc(NC(=O)C2CNc3cc(OC(F)(F)F)ccc3O2)c(C#CCN2CCC(O)CC2)c1` (stereo not drawn) [Compound 64], the Emax was in the range of 25 to 100% and the EC50 was below 5 µM.

On to `CN(C)CC#Cc1cc(C2CCCC2)c(O)cc1NC(=O)[C@@H]1CNc2cc(OC(F)(F)F)ccc2O1` [Compound 65], for which the Emax was above 100% and the EC50 was below 5 µM.

Regarding `CC(C)(C)c1cc(C2CCCC2)c(O)cc1NC(=O)C1CNc2cc(S(C)(=O)=O)ccc2O1` (stereo not drawn) [Compound 66], the Emax fell in the range of 25 to 100% and the concentration for a half-maximal effect (EC50) is below 5 µM.

Take `Cc1ccc(NC(=O)C2CNc3cc(Cl)ccc3O2)c(C#CCN(C)C)c1` (stereo not drawn) [Compound 67]: the maximal response (Emax) fell in the range of 25 to 100% and the EC50 was below 5 µM.

In the case of `CC1(c2cc(F)c(NC(=O)C3CNc4ccc(F)cc4O3)cc2O)CCCCC1` (stereo not drawn) [Compound 68], the Emax lay within 25 to 100% and the EC50 is below 5 µM.

Consider `Cc1ccc(NC(=O)C2CNc3cc(OC(F)(F)F)ccc3O2)c(C#CCN2CCC(C(=O)O)CC2)c1` (stereo not drawn) [Compound 69], for which the Emax lay in the range of 25 to 100% and the EC50 lay in the range of 5 to 20 µM.

Turning to `CC(C)(C)c1ccc(NC(=O)C2CNc3ccc(C(F)(F)F)cc3O2)cc1O` (stereo not drawn) [Compound 70], the maximal effect (Emax) was 25 to 100% and the EC50 was below 5 µM.

`Cc1ccc(NC(=O)C2CNc3cc(OC(F)(F)F)ccc3O2)c(C#CCN2CCCCC2)c1` (stereo not drawn) [Compound 71]: the Emax lay within 25 to 100% and the EC50 was below 5 µM.

With `Cc1cc(C2CCCC2)c(O)cc1NC(=O)C1CNc2cc(S(C)(=O)=O)ccc2O1` (stereo not drawn) [Compound 72], the maximal effect (Emax) is 25 to 100% and the EC50 was below 5 µM.

For `Cc1ccc(NC(=O)C2CNc3cc(OC(F)(F)F)ccc3O2)c(C#CCN2CCCC2)c1` (stereo not drawn) [Compound 73], the Emax is 25 to 100% and the EC50 is below 5 µM.

On to `Cc1cc(C2CCCC2)c(O)cc1NC(=O)C1CNc2cc(C#N)ccc2O1` (stereo not drawn) [Compound 74], for which the maximal response (Emax) fell in the range of 25 to 100% and the EC50 is below 5 µM.

In the case of `COC(=O)Cc1cc(C2CCCC2)c(O)cc1NC(=O)C1CNc2cc(OC(F)(F)F)ccc2O1` (stereo not drawn) [Compound 75], the Emax was above 100% and the 50% effective concentration (EC50) is below 5 µM.

Regarding `O=C(Nc1cc(O)c(C2CCCC2)cc1C(F)(F)F)[C@@H]1CNc2cc(F)ccc2O1` [Compound 76], the maximal response (Emax) was in the range of 25 to 100% and the half-maximal effective concentration (EC50) is below 5 µM.

With `CC(C)(C)c1ccc(NC(=O)[C@H]2CNc3ccc(F)cc3O2)cc1O` [Compound 77], the maximal effect (Emax) is 25 to 100% and the EC50 was below 5 µM.

Take `CC(C)(C)c1ccc(NC(=O)C2CNc3c(F)cccc3O2)cc1O` (stereo not drawn) [Compound 78]: the maximal response (Emax) lay within 25 to 100% and the EC50 was below 5 µM.

As to `CN(C)CC#Cc1cc(C2CCCC2)c(O)cc1NC(=O)C1(C)CNc2cc(OC(F)(F)F)ccc2O1` (stereo not drawn) [Compound 79], the maximal effect (Emax) was above 100% and the EC50 was below 5 µM.

For `CC1(c2cc(F)c(NC(=O)[C@H]3CNc4ccccc4O3)cc2O)CCCCC1` [Compound 80], the maximum response (Emax) is 25 to 100% and the EC50 was below 5 µM.

Take `Cc1ccc(NC(=O)C2CNc3cc(OC(F)(F)F)ccc3O2)c(CCCN(C)C)c1` (stereo not drawn) [Compound 81]: the maximum response (Emax) is 25 to 100% and the concentration for a half-maximal effect (EC50) is 5 to 20 µM.

Take `COc1cc(NC(=O)C2CNc3ccc(F)cc3O2)c(Cl)cc1C(C)(C)O` (stereo not drawn) [Compound 82]: the maximum response (Emax) lay in the range of 25 to 100% and the EC50 is below 5 µM.

Take `CC(C)(C)c1ccc(NC(=O)[C@@H]2CNc3ccc(F)cc3O2)cc1O` [Compound 83]: the maximal response (Emax) fell in the range of 25 to 100% and the EC50 is below 5 µM.

Regarding `CN(C)CC#Cc1cc(C2CCCC2)c(O)cc1NC(=O)[C@H]1CNc2ccccc2O1` [Compound 84], the Emax lay in the range of 25 to 100% and the half-maximal effective concentration (EC50) was below 5 µM.

For `CC(C)(C)c1ccc(NC(=O)C2CNc3cccc(C(F)(F)F)c3O2)cc1O` (stereo not drawn) [Compound 85], the Emax lay in the range of 25 to 100% and the EC50 was below 5 µM.

Consider `Cc1ccc2c(c1)OC(C(=O)Nc1cc(O)c(C)cc1F)CN2` (stereo not drawn) [Compound 86], for which the Emax lay in the range of 25 to 100% and the EC50 is below 5 µM.

Turning to `CC(C)(C)c1cc(C2CCCC2)c(O)cc1NC(=O)C1CNc2cc(C#N)ccc2O1` (stereo not drawn) [Compound 87], the Emax is 25 to 100% and the 50% effective concentration (EC50) is below 5 µM.

For `Cc1cc(C2CCCC2)c(O)cc1NC(=O)[C@H]1CNc2cc(C#N)ccc2O1` [Compound 88], the maximum response (Emax) lay within 25 to 100% and the concentration giving a half-maximal response (EC50) is below 5 µM.

`C[C@H]1CCCN1c1ccc(NC(=O)C2CNc3ccccc3O2)c(C(F)(F)F)c1` (stereo partly drawn) [Compound 89]: the Emax lay within 25 to 100% and the concentration for a half-maximal effect (EC50) was below 5 µM.

For the compound `CC(C)(C)c1cc(C(C)(C)C)c(NC(=O)C2CNc3ccccc3O2)cc1O` (stereo not drawn) [Compound 90], the Emax lay in the range of 25 to 100% and the concentration for a half-maximal effect (EC50) was below 5 µM.

As to `Cc1ccc(NC(=O)C2CNc3cc(OC(F)(F)F)ccc3O2)c(C#CCN(C)C)n1` (stereo not drawn) [Compound 91], the Emax lay within 25 to 100% and the EC50 is below 5 µM.

`CC(C)(C)c1ccc(NC(=O)C2CNc3ccccc3O2)cc1F` (stereo not drawn) [Compound 92]: the Emax is 25 to 100% and the 50% effective concentration (EC50) is below 5 µM.

As for `O=C(Nc1cc(O)c(C2CCCC2)cc1C(F)(F)F)[C@H]1CNc2cc(F)ccc2O1` [Compound 93], the Emax is 25 to 100% and the EC50 is below 5 µM.

Consider `COc1cc(NC(=O)C2CNc3ccc(F)cc3O2)ccc1C(C)(C)C` (stereo not drawn) [Compound 94], for which the Emax is 25 to 100% and the concentration giving a half-maximal response (EC50) was below 5 µM.

Turning to `COc1cc(NC(=O)C2CNc3cc(OC(F)(F)F)ccc3O2)c(C#CCN(C)C)cc1C1CCCC1` (stereo not drawn) [Compound 95], the Emax was above 100% and the EC50 is below 5 µM.

Take `Cc1cc(C#CC(=O)O)c(NC(=O)C2CNc3cc(OC(F)(F)F)ccc3O2)cc1O` (stereo not drawn) [Compound 96]: the maximal effect (Emax) lay in the range of 25 to 100% and the EC50 was below 5 µM.

One may read the Emax as the size of the effect at its maximum, as opposed to the concentration needed. One may read the EC50 as the midpoint of the concentration-response curve.
